Reference: US9216965B2, “Amino-quinolines as kinase inhibitors” (GlaxoSmithKline Intellectual Property Development Limited, priority 2012, dated 2015)
Structures can show the parent of a compound that is named as a salt.

What follows are molecules tested against T1, RIPK2 (Homo sapiens, UniProt O43353) (assay: Fluorescent polarization based binding assay at the ATP binding pocket of RIPK2). Conditions: full length FLAG His tagged RIPK2; competition with fluorescently labeled ATP competitive ligand (5 nM); mean of a minimum of 2 experiments.
T1 construct: Full length FLAG His tagged RIPK2 was purified from a Baculovirus expression system; FLAG (N); 6His (N); made in house; host or cells: Spodoptera frugiperda (Sf9) insect cells, baculovirus
T1 sequence (O43353 whole entry): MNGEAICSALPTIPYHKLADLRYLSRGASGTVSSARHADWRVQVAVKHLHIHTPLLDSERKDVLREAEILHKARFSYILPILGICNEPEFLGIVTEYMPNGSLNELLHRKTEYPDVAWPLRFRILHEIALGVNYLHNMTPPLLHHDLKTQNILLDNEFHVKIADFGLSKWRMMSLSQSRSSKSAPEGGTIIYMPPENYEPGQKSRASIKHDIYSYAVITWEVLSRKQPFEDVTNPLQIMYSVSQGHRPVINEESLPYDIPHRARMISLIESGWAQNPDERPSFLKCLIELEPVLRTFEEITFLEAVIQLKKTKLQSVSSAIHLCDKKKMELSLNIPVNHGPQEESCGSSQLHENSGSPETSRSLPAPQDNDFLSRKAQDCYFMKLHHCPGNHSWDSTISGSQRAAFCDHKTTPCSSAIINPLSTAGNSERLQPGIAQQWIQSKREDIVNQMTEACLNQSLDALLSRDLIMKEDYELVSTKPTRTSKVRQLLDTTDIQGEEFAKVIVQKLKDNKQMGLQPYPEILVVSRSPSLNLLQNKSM
Protocol: A fluorescent polarization based binding assay was developed to quantitate interaction of novel test compounds at the ATP binding pocket of RIPK2, by competition with a fluorescently labeled ATP competitive ligand. Full length FLAG His tagged RIPK2 was purified from a Baculovirus expression system and was used at a final assay concentration of twice the KDapparent. […] Both the enzyme and ligand were prepared in solutions in 50 mM HEPES pH7.5, 150 mM NaCl, 10 mM MgCl2, 1 mM DTT, and 1 mM CHAPS. Test compounds were prepared in 100% DMSO and 100 nL was dispensed to individual wells of a multiwell plate. Next, 5 ul RIPK2 was added to the test compounds at twice the final assay concentration, and incubated at rt for 10 min. Following the incubation, 5 ul of the fluorescent labeled ligand solution, was added to each reaction, at twice the final assay concentration, and incubated at rt for at least 10 min. Finally, samples were read on an instrument capable of measuring fluorescent polarization. Test compound inhibition was expressed as percent (%) inhibition of internal assay controls.
For concentration/dose response experiments, normalized data were fit and pIC50s determined using conventional techniques.
Gateway® LR cloning was used to site-specifically recombine RIPK2 downstream to an N-terminal FLAG-6His contained within the destination vector pDEST8-FLAG-His6 according to the protocol described by Invitrogen. Transfection into Spodoptera frugiperda (Sf9) insect cells was performed using Cellfectin® (Invitrogen), according to the manufacturer's protocol.

SMILES | IC50 [nM]
Cc1n[nH]c(Nc2ccnc3cc(OCC(C)(C)O)c(S(=O)(=O)C(C)(C)C)cc23)c1C [Example 4, 1-((6-(tert-Butylsulfonyl)-4-((3,4-dimethyl-1H-pyrazol-5-yl)amino)quinolin-7-yl)oxy)-2-methylpropan-2-ol] | 6.31
Cc1[nH]nc(Nc2ccnc3cc(OCC(F)(F)F)c(S(=O)(=O)C(C)(C)C)cc23)c1C [Example 7, 6-(tert-butylsulfonyl)-N-(4,5-dimethyl-1H-pyrazol-3-yl)-7-(2,2,2-trifluoroethoxy) quinolin-4-amine] | 5.01
Cc1n[nH]c(Nc2ccnc3cc(F)c(S(=O)(=O)C(C)(C)C)cc23)c1C [Example 10, 6-(tert-Butylsulfonyl)-N-(3,4-dimethyl-1H-pyrazol-5-yl)-7-fluoroquinolin-4-amine] | 15.8

Second part, the molecule after the results:

IC50 [nM] | SMILES
3.98 | Cc1n[nH]c(Nc2ccnc3cc(OCC(C)O)c(S(=O)(=O)C(C)(C)C)cc23)c1C (racemic) [Example 1, 1-((6-(tert-Butylsulfonyl)-4-((3,4-dimethyl-1H-pyrazol-5-yl)amino)quinolin-7-yl)oxy)propan-2-ol]
3.16 | Cc1n[nH]c(Nc2ccnc3cc(OC[C@@H](C)O)c(S(=O)(=O)C(C)(C)C)cc23)c1C [2(R), (R)-1-((6-(tert-Butylsulfonyl)-4-((3,4-dimethyl-1H-pyrazol-5-yl)amino)quinolin-7-yl)oxy)propan-2-ol, hydrochloride]
3.16 | Cc1n[nH]c(Nc2ccnc3cc(OC[C@H](C)O)c(S(=O)(=O)C(C)(C)C)cc23)c1C [2(S), (S)-1-((6-(tert-butylsulfonyl)-4-((3,4-dimethyl-1H-pyrazol-5-yl)amino)quinolin-7-yl)oxy)propan-2-ol, hydrochloride]
5.01 | Cc1n[nH]c(Nc2ccnc3cc(OCC(F)F)c(S(=O)(=O)C(C)(C)C)cc23)c1C [Example 5, 6-(tert-Butylsulfonyl)-7-(2,2-difluoroethoxy)-N-(3,4-dimethyl-1H-pyrazol-5-yl)quinolin-4-amine]
3.98 | COCCCOc1cc2nccc(Nc3[nH]nc(C)c3C)c2cc1S(=O)(=O)C(C)(C)C [Example 6, 6-(tert-Butylsulfonyl)-N-(3,4-dimethyl-1H-pyrazol-5-yl)-7-(3-methoxypropoxy)quinolin-4-amine]
